Test system: M. tuberculosis 16R
Assay: action on pathogenic mycobacteria from patients, Lowenstein-Jensen medium, M. tuberculosis 16R
Assay type: cell-based
Conditions: title: concentration of compound 10.0 g/l; 30 days; resistant to control compounds

Row | Structure (SMILES) | antimicrobial action, M. tuberculosis 16R
1 | CC[C@@H](CO)NCCN[C@@H](CC)CO [Ethambutol, reference compound] | growth
2 | NNC(=O)c1ccncc1 [Isoniazid, hydrazide of izonicotinic acid, reference compound] | growth
3 | CO[C@H]1/C=C/O[C@@]2(C)Oc3c(C)c(O)c4c(O)c(cc(O)c4c3C2=O)NC(=O)/C(C)=C\C=C\[C@H](C)[C@H](O)[C@@H](C)[C@@H](O)[C@@H](C)[C@H](OC(C)=O)[C@@H]1C [Rifamycin, reference compound] | growth
4 | [H]/N=C(/N)N[C@H]1[C@H](O)[C@@H](O)[C@H](O[C@@H]2O[C@@H](C)[C@](O)(C=O)[C@H]2O[C@@H]2O[C@@H](CO)[C@H](O)[C@@H](O)[C@@H]2NC)[C@@H](N/C(N)=N\[H])[C@@H]1O [Streptomycin, reference compound] | growth

— patent publication US6071905A, “Biologically active substance on the basis of tetracyclic nitrogen heterocycles of pyrimidine row” (Natural Drug Sciences, LLC, priority 1998, dated 2000)
